Literature values, collected in PMC12163019 (Frontiers in Pharmacology, 2025).

Parameters: method as in Danto et al., 2019a
Conditions: modified-release formulation; ref Danto et al., 2019a

CC[C@@H]1[C@H](F)C(=O)N[C@@H]1COc1nccc2cc(C(N)=O)c(OC)cc12 [zimlovisertib]
half-life: 38.8 ± 21.1 h
